According to patent US20240398812A1 (Caraway Therapeutics, Inc., priority 2021, published 2024):

Experiments:
Type in all cases: cell-based
TRPML2 = biological target: T1, TRPML2 (Homo sapiens, UniProt Q8IZK6); test: Fluorescent TRPML2 assay (as for TRPML1)
T1 construct: expressed in transfected cells
T1 sequence (Q8IZK6 1-566): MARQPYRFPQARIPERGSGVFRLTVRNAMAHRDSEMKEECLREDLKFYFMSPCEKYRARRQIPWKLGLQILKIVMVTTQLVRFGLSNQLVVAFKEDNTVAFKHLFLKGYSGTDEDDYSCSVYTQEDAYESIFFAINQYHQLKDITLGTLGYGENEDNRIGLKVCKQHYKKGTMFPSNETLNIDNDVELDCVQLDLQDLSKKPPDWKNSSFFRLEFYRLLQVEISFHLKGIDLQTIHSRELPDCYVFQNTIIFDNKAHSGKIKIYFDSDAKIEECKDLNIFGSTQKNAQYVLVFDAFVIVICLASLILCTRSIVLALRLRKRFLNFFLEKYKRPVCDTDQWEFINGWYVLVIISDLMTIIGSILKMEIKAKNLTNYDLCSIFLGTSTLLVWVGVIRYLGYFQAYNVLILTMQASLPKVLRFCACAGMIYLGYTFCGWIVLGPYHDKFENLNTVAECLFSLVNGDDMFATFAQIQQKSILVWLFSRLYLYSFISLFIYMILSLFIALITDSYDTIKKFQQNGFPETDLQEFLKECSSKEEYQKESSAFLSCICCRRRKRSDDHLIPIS
Summary of the method: (§1)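 HEK-293 Trex cells with tet-inducible (0.5 ug/mL doxycycline, overnight) surface-targeted mutant channel, Fluo4-AM loaded, suspended in Ringer's with 10 mM calcium. Compounds tested 20 µM to 6 nM final, half-log steps, triplicate; fluorescence at ex 480/em 540 nm. EC50 by non-linear regression of percent activity versus plate controls.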

human TRPML1 = human TRPML1 (Homo sapiens, UniProt Q9GZU1); test: Fluorescent TRPML1 assay (Fluo4-AM calcium fluorescence, HEK-293 Trex cells)
Sequence of human TRPML1 (Q9GZU1 whole entry L15A/L16A/L577A/L578A, form open): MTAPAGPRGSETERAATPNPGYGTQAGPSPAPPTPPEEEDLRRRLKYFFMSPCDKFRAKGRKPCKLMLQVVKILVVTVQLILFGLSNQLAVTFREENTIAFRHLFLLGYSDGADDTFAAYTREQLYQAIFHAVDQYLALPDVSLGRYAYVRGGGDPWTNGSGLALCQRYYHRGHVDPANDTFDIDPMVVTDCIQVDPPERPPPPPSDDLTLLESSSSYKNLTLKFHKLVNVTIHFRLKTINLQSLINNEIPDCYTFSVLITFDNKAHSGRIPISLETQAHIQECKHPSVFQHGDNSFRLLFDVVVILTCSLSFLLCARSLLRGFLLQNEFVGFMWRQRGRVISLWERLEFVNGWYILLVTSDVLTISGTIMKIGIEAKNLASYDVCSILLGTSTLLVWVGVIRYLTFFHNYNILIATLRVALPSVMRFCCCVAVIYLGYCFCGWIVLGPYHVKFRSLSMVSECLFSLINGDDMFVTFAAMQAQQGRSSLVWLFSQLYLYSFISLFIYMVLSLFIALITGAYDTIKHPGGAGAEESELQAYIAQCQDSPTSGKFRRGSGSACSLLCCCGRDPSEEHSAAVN
Summary of the method: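 Tet-inducible HEK-293 Trex cells stably expressing surface-targeted mutant human TRPML1, induced with 0.5 ug/mL doxycycline overnight, loaded with Fluo4-AM and suspended in Ringer's with 10 mM calcium. Compounds tested from 20 μM to 6 nM final, half-log steps, in triplicate; fluorescence (ex 480/em 540) normalised to plate controls, EC50 by non-linear regression.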

TRPML3 = biological target: T2, TRPML3 (Homo sapiens, UniProt Q8TDD5); test: Fluorescent TRPML3 assay (as for TRPML1)
T2 construct: expressed in transfected cells
T2 sequence (Q8TDD5 1-553): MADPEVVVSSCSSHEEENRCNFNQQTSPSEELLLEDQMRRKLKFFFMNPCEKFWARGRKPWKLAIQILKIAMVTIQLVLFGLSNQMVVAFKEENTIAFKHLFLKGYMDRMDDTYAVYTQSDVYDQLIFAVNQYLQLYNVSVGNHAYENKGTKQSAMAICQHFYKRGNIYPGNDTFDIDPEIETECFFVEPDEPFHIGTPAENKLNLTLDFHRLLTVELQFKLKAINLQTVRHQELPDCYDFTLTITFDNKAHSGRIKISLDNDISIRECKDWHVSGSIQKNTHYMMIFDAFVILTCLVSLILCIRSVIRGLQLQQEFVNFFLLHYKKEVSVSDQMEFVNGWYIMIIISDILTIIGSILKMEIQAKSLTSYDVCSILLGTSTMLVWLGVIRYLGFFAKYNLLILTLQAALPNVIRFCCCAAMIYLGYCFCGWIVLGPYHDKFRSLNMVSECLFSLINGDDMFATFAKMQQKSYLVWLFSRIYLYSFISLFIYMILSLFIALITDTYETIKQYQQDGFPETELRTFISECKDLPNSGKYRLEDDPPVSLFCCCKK
Summary of the method: as §1

Structure (SMILES)	EC50 (TRPML2; Table 3, compounds 101-177)	EC50 (human TRPML1; Table 3, compounds 101-177)	EC50 (TRPML3; Table 3, compounds 101-177)	EC50 (TRPML2; Table 3, compounds 201-283)	EC50 (human TRPML1; Table 3, compounds 201-283)	EC50 (TRPML3; Table 3, compounds 201-283)
C[C@@H]1CN(c2ncnc3c2c(-c2ccccc2)cn3-c2cc(C#N)ccn2)CCN1C(=O)C(C)(C)C [Compound 121, (R)-2-(4-(3-methyl-4-pivaloylpiperazin-1-yl)-5-phenyl-7H-pyrrolo[2,3-d]pyrimidin-7-yl)isonicotinonitrile]	100 to 500 nM	< 100 nM	< 100 nM			
C[C@@H]1CN(c2ncnc3c2c(-c2ccccc2F)cn3-c2cc(C#N)ccn2)[C@@H](C)CN1C(=O)C1(F)CC1 [Compound 235, 2-(4-((2S,5R)-4-(1-fluorocyclopropane-1-carbonyl)-2,5-dimethylpiperazin-1-yl)-5-(2-fluorophenyl)-7H-pyrrolo[2,3-d]pyrimidin-7-yl)isonicotinonitrile]				100 to 500 nM	< 100 nM	500 to 2000 nM
C[C@@H]1CN(c2ncnc3c2c(C2CCC2)cn3-c2cc(F)cc(F)c2)[C@@H](C)CN1C(=O)CC(C)(C)C(F)(F)F [Compound 256, 1-((2R,5S)-4-(5-cyclobutyl-7-(3,5-difluorophenyl)-7H-pyrrolo[2,3-d]pyrimidin-4-yl)-2,5-dimethylpiperazin-1-yl)-4,4,4-trifluoro-3,3-dimethylbutan-1-one]				> 2000 nM	500 to 2000 nM	500 to 2000 nM
COC(C)(C)C(=O)N1CCN(c2ncnc3c2c(C2CC2)cn3-c2cc(C#N)ccn2)C[C@H]1C [Compound 265, (R)-2-(5-cyclopropyl-4-(4-(2-methoxy-2-methylpropanoyl)-3-methylpiperazin-1-yl)-7H-pyrrolo [2,3-d]pyrimidin-7-yl)isonicotinonitrile]				100 to 500 nM	< 100 nM	< 100 nM
C[C@@H]1CN(c2ncnc3c2c(C2CCC2)cn3-c2cccc(Cl)c2)[C@@H](C)CN1C(=O)C(C)(C)C(F)(F)F [Compound 257, 1-((2R,5S)-4-(7-(3-chlorophenyl)-5-cyclobutyl-7H-pyrrolo[2,3-d]pyrimidin-4-yl)-2,5-dimethylpiperazin-1-yl)-3,3,3-trifluoro-2,2-dimethylpropan-1-one]				100 to 500 nM	< 100 nM	500 to 2000 nM
C[C@H]1CN(C(=O)C(C)(C)C)CCN1c1ncnc2c1c(-c1ccccc1)cn2-c1cc(C#N)ccn1 [Compound 120, (S)-2-(4-(2-methyl-4-pivaloylpiperazin-1-yl)-5-phenyl-7H-pyrrolo[2,3-d]pyrimidin-7-yl)isonicotinonitrile]	100 to 500 nM	< 100 nM	< 100 nM			
CC(C)CC(=O)N1C[C@H](C)N(c2ncnc3c2c(C2CC2)cn3-c2cc(C#N)ccn2)C[C@H]1C [Compound 154]	> 2000 nM	100 to 500 nM	< 100 nM			
COC(C)(C)C(=O)N1C[C@H](C)N(c2ncnc3c2c(-c2ccccc2F)cn3-c2cc(C#N)ccn2)C[C@H]1C [Compound 232, 2-(5-(2-fluorophenyl)-4-((2S,5R)-4-(2-methoxy-2-methylpropanoyl)-2,5-dimethylpiperazin-1-yl)-7H-pyrrolo[2,3-d]pyrimidin-7-yl)isonicotinonitrile]				< 100 nM	< 100 nM	< 100 nM
CC(C)C(=O)N1CCN(c2ncnc3c2c(-c2ccccc2)cn3-c2cc(C#N)ccn2)[C@@H](C)C1 [Compound 118, (S)-2-(4-(4-isobutyryl-2-methylpiperazin-1-yl)-5-phenyl-7H-pyrrolo[2,3-d]pyrimidin-7-yl)isonicotinonitrile]	500 to 2000 nM	< 100 nM	< 100 nM			
C[C@@H]1CN(c2ncnc3c2c(-c2ccccc2F)cn3-c2cc(C#N)ccn2)CCN1C(=O)C(C)(C)C [Compound 109, (R)-2-(5-(2-fluorophenyl)-4-(3-methyl-4-pivaloylpiperazin-1-yl)-7H-pyrrolo[2,3-d]pyrimidin-7-yl)isonicotinonitrile]	< 100 nM	< 100 nM	< 100 nM			
C[C@@H]1CN(c2ncnc3c2c(-c2ccccc2F)cn3-c2cc(C#N)ccn2)CCN1C(=O)C1(F)CC1 [Compound 131]	100 to 500 nM	< 100 nM	< 100 nM			
COC(C)(C)C(=O)N1CCN(c2ncnc3c2c(-c2ccccc2F)cn3-c2cc(C#N)ccn2)[C@@H](C)C1 [Compound 242, (S)-2-(5-(2-fluorophenyl)-4-(4-(2-methoxy-2-methylpropanoyl)-2-methylpiperazin-1-yl)-7H-pyrrolo[2,3-d]pyrimidin-7-yl)isonicotinonitrile]				100 to 500 nM	< 100 nM	100 to 500 nM
C[C@H]1CN(C(=O)C(C)(C)C)CCN1c1ncnc2c1c(-c1ccccc1F)cn2-c1cc(C#N)ccn1 [Compound 103, (S)-2-(5-(2-fluorophenyl)-4-(2-methyl-4-pivaloylpiperazin-1-yl)-7H-pyrrolo[2,3-d]pyrimidin-7-yl)isonicotinonitrile]	< 100 nM	< 100 nM	< 100 nM			
C[C@H]1CN(C(=O)C(C)(C)C)CCN1c1ncnc2c1c(C1CC1)cn2-c1cccc(F)c1 [Compound 215, (S)-1-(4-(5-cyclopropyl-7-(3-fluorophenyl)-7H-pyrrolo[2,3-d]pyrimidin-4-yl)-3-methylpiperazin-1-yl)-2,2-dimethylpropan-1-one]				100 to 500 nM	100 to 500 nM	500 to 2000 nM
C[C@@H]1CN(c2ncnc3c2c(C2CCC2)cn3-c2cccc(C(F)(F)F)c2)[C@@H](C)CN1C(=O)C1(F)CC1 [Compound 260, ((2R,5S)-4-(5-cyclobutyl-7-(3-(trifluoromethyl)phenyl)-7H-pyrrolo[2,3-d]pyrimidin-4-yl)-2,5-dimethylpiperazin-1-yl)(1-fluorocyclopropyl)methanone]				> 2000 nM	100 to 500 nM	500 to 2000 nM

Results, then the compound that gave them:

EC50 (TRPML2; Table 3, compounds 101-177)	EC50 (human TRPML1; Table 3, compounds 101-177)	EC50 (TRPML3; Table 3, compounds 101-177)	EC50 (TRPML2; Table 3, compounds 201-283)	EC50 (human TRPML1; Table 3, compounds 201-283)	EC50 (TRPML3; Table 3, compounds 201-283)	Structure (SMILES)
< 100 nM	< 100 nM	< 100 nM				CC(C)(C)C(=O)N1CCN(c2ncnc3c2c(-c2ccccc2F)cn3-c2cc(C#N)ccn2)CC1 [Compound 108, 2-(5-(2-fluorophenyl)-4-(4-pivaloylpiperazin-1-yl)-7H-pyrrolo[2,3-d]pyrimidin-7-yl)isonicotinonitrile]
			500 to 2000 nM	100 to 500 nM	100 to 500 nM	C[C@@H]1CN(c2ncnc3c2c(C2CCC2)cn3-c2cccc(Cl)c2)[C@@H](C)CN1C(=O)CC(C)(C)C(F)(F)F [Compound 258, 1-((2R,5S)-4-(7-(3-chlorophenyl)-5-cyclobutyl-7H-pyrrolo[2,3-d]pyrimidin-4-yl)-2,5-dimethylpiperazin-1-yl)-4,4,4-trifluoro-3,3-dimethylbutan-1-one]
100 to 500 nM	< 100 nM	< 100 nM				C[C@@H]1CN(c2ncnc3c2c(-c2ccccc2F)cn3-c2cc(C#N)ccn2)CCN1C(=O)C(C)(C)F [Compound 126, (R)-2-(4-(4-(2-fluoro-2-methylpropanoyl)-3-methylpiperazin-1-yl)-5-(2-fluorophenyl)-7H-pyrrolo[2,3-d]pyrimidin-7-yl)isonicotinonitrile]
			< 100 nM	< 100 nM	< 100 nM	C[C@@H]1CN(c2ncnc3c2c(N2CCC2)cn3-c2cc(C#N)ccn2)CCN1C(=O)C(C)(C)C [Compound 271, (R)-2-(5-(azetidin-1-yl)-4-(3-methyl-4-pivaloylpiperazin-1-yl)-7H-pyrrolo[2,3-d]pyrimidin-7-yl)isonicotinonitrile]
			< 100 nM	< 100 nM	< 100 nM	C[C@H]1CN(C(=O)[C@H](F)C(C)(C)C)CCN1c1ncnc2c1c(C1CC1)cn2-c1cc(C#N)ccn1 (single isomer, unassigned) [Compound 202]
500 to 2000 nM	< 100 nM	100 to 500 nM				C[C@H]1CN(C(=O)C(C)(C)C)CCN1c1ncnc2c1c(-c1ccccn1)cn2-c1cc(C#N)ccn1 [Compound 117, (S)-2-(4-(2-methyl-4-pivaloylpiperazin-1-yl)-5-(pyridin-2-yl)-7H-pyrrolo[2,3-d]pyrimidin-7-yl)isonicotinonitrile]
